Test results published in PMC10287695, “Non-covalent inhibitors of thioredoxin glutathione reductase with schistosomicidal activity in vivo” (Nature Communications, 2023).

Experiments:
[1] = target: T1, Human GR (Homo sapiens, UniProt P00390); experiment: Human GR enzyme inhibition (GSSG reduction, NADPH oxidation); format: biochemical; details: hGR
T1 construct: made in house
T1 sequence (P00390 44-522): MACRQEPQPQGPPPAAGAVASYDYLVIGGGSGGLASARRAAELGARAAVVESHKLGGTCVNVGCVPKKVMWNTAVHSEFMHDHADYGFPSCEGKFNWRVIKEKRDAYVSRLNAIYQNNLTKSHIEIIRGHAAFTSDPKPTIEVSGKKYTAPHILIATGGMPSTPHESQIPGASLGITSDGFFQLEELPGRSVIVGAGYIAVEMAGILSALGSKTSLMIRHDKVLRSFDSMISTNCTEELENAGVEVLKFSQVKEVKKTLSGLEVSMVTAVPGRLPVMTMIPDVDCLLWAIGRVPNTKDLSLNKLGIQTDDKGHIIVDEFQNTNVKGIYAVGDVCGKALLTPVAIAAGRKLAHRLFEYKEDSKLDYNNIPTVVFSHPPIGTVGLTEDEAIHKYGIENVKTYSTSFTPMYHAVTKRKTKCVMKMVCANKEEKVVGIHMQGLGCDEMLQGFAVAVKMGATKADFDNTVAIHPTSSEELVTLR
Method: Recombinant TGR, human TrxR1, B. malayi (Bm)TrxR and human GR proteins were expressed and purified as described[20],[69],[79]. The codon optimized sequence for P. falciparum (PfTrxR, https://www.ncbi.nlm.nih.gov/protein/CAA60574.1/) with an N-terminal 6-His tag was synthesized and inserted into pET15b (GenScript) and expressed in BL21 (DE3) cells and purified as described for human GR[20]. TGR and TrxR enzyme inhibition assays were performed in triplicate at 25 °C as described[20] in 0.1 M potassium phosphate (pH 7.4), 10 mM EDTA, 100 µM NADPH and 0.01% Tween-20. TGR, human TrxR1 and BmTrxR (all at 4 nM) and PfTrxR (50 nM) were preincubated with the compounds for 15 min. The reaction was started with addition of an equal volume of DTNB (6 mM) and NADPH (100 µM) and the increase in A412 during the first 3 min was recorded. […] […] Activity was initiated with the addition of 1 mM GSSG and 100 μM NADPH and initial rates of NADPH oxidation were monitored at 340 nm. The reactions were done in triplicate. The IC50 was calculated in GraphPad Prism.

[2] = target: T2, S. mansoni TGR (Schistosoma mansoni, UniProt Q962Y6); experiment: S. mansoni TGR enzyme inhibition (DTNB reduction); format: biochemical; details: TGR
T2 construct: made in house
T2 sequence (Q962Y6 1-598): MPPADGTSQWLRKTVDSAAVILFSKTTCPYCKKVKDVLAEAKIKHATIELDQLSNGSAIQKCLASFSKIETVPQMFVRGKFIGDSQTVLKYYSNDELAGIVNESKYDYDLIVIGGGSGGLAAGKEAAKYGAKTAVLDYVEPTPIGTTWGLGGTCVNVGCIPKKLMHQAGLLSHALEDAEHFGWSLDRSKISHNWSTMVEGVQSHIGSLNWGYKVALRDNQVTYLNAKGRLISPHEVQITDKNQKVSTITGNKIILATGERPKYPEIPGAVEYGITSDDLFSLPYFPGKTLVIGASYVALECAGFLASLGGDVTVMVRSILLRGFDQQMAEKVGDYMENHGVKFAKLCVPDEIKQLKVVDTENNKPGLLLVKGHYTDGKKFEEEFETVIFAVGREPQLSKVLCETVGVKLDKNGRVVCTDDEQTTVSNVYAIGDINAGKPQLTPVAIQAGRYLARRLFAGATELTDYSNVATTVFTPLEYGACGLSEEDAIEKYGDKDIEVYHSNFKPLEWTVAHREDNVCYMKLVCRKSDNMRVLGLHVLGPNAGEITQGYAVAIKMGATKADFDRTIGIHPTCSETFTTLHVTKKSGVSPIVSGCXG
Method: Recombinant TGR, human TrxR1, B. malayi (Bm)TrxR and human GR proteins were expressed and purified as described[20],[69],[79]. The codon optimized sequence for P. falciparum (PfTrxR, https://www.ncbi.nlm.nih.gov/protein/CAA60574.1/) with an N-terminal 6-His tag was synthesized and inserted into pET15b (GenScript) and expressed in BL21 (DE3) cells and purified as described for human GR[20]. TGR and TrxR enzyme inhibition assays were performed in triplicate at 25 °C as described[20] in 0.1 M potassium phosphate (pH 7.4), 10 mM EDTA, 100 µM NADPH and 0.01% Tween-20. […] The reaction was started with addition of an equal volume of DTNB (6 mM) and NADPH (100 µM) and the increase in A412 during the first 3 min was recorded. […] The reaction was preincubated for 15 min. Activity was initiated with the addition of 1 mM GSSG and 100 μM NADPH and initial rates of NADPH oxidation were monitored at 340 nm. The reactions were done in triplicate. The IC50 was calculated in GraphPad Prism.

[3] = test system: S. mansoni newly transformed schistosomula (NTS); experiment: Schistosomicidal activity ex vivo, NTS (Cell Titer Glo); format: cell-based; details: S. mansoni NTS
Method: Oncomelania hupensis subsp. hupensis, Chinese strain, infected with S. japonicum, Chinese strain, and Biomphalaria glabrata, strain NMRI, infected with S. mansoni, strain NMRI, were provided by the NIAID Schistosomiasis Resource Center for distribution through BEI Resources, NIAID, NIH. After infections were patent, snails were exposed to bright light for 1 hr to obtain cercariae. Cercariae were mechanically transformed to schistosomula. Briefly, cercariae were placed on ice for 30 min and then centrifuged at 350 × g for 10 mins. The supernatant was decanted and 2 ml of serum-free M199 medium was added to cercarial pellets and vortexed for 1 min until cercarial tails were detached. NTS were purified by layering on 4 °C Percoll gradient suspension containing Eagle’s minimum essential medium, penicillin-streptomycin (10,000 U per ml penicillin/10,000 U per ml streptomycin), and 1 M HEPES in 0.85% NaCl with cercariae suspension and centrifuged at 500 × g for 15 min. Cercarial pellets were resuspended and washed thrice in serum-free M199 medium and collected at 100 × g for 5 min. NTS (240) were transferred to U-bottom 96 well assay plates containing 200 µl of M199 medium supplemented with 5.5 mM D-glucose, penicillin-streptomycin and 5% heat inactivated fetal bovine serum and incubated at 37 °C in a 5% CO2 incubator overnight.
DMSO formulated compounds were diluted with phenol red free M199 medium or RPMI medium for NTS or juvenile and adult worms, respectively, at <1% DMSO final concentrations. NTS, juvenile and adult worms from overnight cultures were tested against compounds in triplicate. Controls were treated with DMSO alone or 5 µM AF as a positive control in appropriate medium. Worm viability was assessed at 24 or 72 h by measuring ATP content of worms using Cell Titer Glo Assay (Promega) as described. Schistosome viabilities in the presence of the compounds were assessed using this formula: % Viability = Averages of Test / Averages of DMSO Control x 100.

[4] = test system: Vero cells; experiment: Cytotoxicity in mammalian cells (Cell Titer Glo); format: cell-based; details: Vero cells
Method: Following overnight incubation, formulated DMSO-compound stock solutions were diluted with DMEM at <1% DMSO final concentrations. […] Vero cells treated similarly with different concentrations of PZQ, MZM and AF (Cayman Chemicals) were used as positive controls.

[5] = 15 minutes pre-incubation, compound 15 µM
[6] = 15 minutes pre-incubation, compound 30 µM
[7] = 15 minutes pre-incubation, compound 66.7 µM
[8] = 6 hours pre-incubation, compound 15 µM
[9] = 6 hours pre-incubation, compound 30 µM
[10] = 6 hours pre-incubation, compound 66.7 µM

## Cc1oc(C2CCCCC2)nc1CN[C@@H]1C[C@@H]2C[C@H]([C@H]1C)C2(C)C [C4]
[1]; [5]
  % inhibition: -0.5314%
[1]; [6]
  % inhibition: -1.471%
[1]; [7]
  % inhibition: -0.894%
[1]; [8]
  % inhibition: -2.859%
[1]; [9]
  % inhibition: -0.4408%
[1]; [10]
  % inhibition: -0.3554%
[2]; [5]
  % inhibition: 4.307%
[2]; [6]
  % inhibition: 7.284%
[2]; [7]
  % inhibition: 12.4488%
[2]; [8]
  % inhibition: 20.5703%
[2]; [9]
  % inhibition: 43.128%
[2]; [10]
  % inhibition: 68.6238%
[3]; Conc. 1 µM
  % viability: 51.9254%
[3]; Conc. 5 µM
  % viability: 22.4326%
[3]; Conc. 15 µM
  % viability: 2.552%
[3]; Conc. 30 µM
  % viability: 0.3078%
[3]; Conc. 50 µM
  % viability: 0.1166%
[4]; Conc. 5 µM
  % viability: 99.7864%
[4]; Conc. 10 µM
  % viability: 99.8193%
[4]; Conc. 25 µM
  % viability: 95.3884%
[4]; Conc. 35 µM
  % viability: 94.379%
[4]; Conc. 50 µM
  % viability: 91.2714%
